System: SEM cells
Test: cell viability relative to DMSO control; higher = less cytotoxic
Settings: 48 h
Outline: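 Viability was expressed as a per-plate percentage of DMSO wells, with cell-free wells as background. Leukemia cells (NOMO1 or SEM at 500 cells/well, P12-Ichikawa at 1000 cells/well) were adapted for at least four passages in each medium and seeded in 1536-well plates (5 μl). Library compounds in DMSO were pin-dosed over an 11-point threefold series from 47 μM to 0.79 nM, and CellTiter-Glo One luminescence was read after 48 h at 37°C.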

[1] = HPLM + 10% dialyzed FBS, 0.000781 µM
[2] = HPLM + 10% dialyzed FBS, 0.00234 µM
[3] = HPLM + 10% dialyzed FBS, 0.00702 µM
[4] = HPLM + 10% dialyzed FBS, 0.0211 µM
[5] = HPLM + 10% dialyzed FBS, 0.0632 µM
[6] = HPLM + 10% dialyzed FBS, 0.19 µM
[7] = HPLM + 10% dialyzed FBS, 0.569 µM
[8] = HPLM + 10% dialyzed FBS, 1.71 µM
[9] = HPLM + 10% dialyzed FBS, 5.12 µM
[10] = HPLM + 10% dialyzed FBS, 15.4 µM
[11] = HPLM + 10% dialyzed FBS, 46.1 µM
[12] = RPMI 5 mM glucose + 10% FBS, 0.000781 µM
[13] = RPMI 5 mM glucose + 10% FBS, 0.00234 µM
[14] = RPMI 5 mM glucose + 10% FBS, 0.00702 µM
[15] = RPMI 5 mM glucose + 10% FBS, 0.0211 µM
[16] = RPMI 5 mM glucose + 10% FBS, 0.0632 µM
[17] = RPMI 5 mM glucose + 10% FBS, 0.19 µM
[18] = RPMI 5 mM glucose + 10% FBS, 0.569 µM
[19] = RPMI 5 mM glucose + 10% FBS, 1.71 µM
[20] = RPMI 5 mM glucose + 10% FBS, 5.12 µM
[21] = RPMI 5 mM glucose + 10% FBS, 15.4 µM
[22] = RPMI 5 mM glucose + 10% FBS, 46.1 µM
[23] = RPMI 5 mM glucose + 10% dialyzed FBS, 0.000781 µM
[24] = RPMI 5 mM glucose + 10% dialyzed FBS, 0.00234 µM
[25] = RPMI 5 mM glucose + 10% dialyzed FBS, 0.00702 µM
[26] = RPMI 5 mM glucose + 10% dialyzed FBS, 0.0211 µM
[27] = RPMI 5 mM glucose + 10% dialyzed FBS, 0.0632 µM
[28] = RPMI 5 mM glucose + 10% dialyzed FBS, 0.19 µM
[29] = RPMI 5 mM glucose + 10% dialyzed FBS, 0.569 µM
[30] = RPMI 5 mM glucose + 10% dialyzed FBS, 1.71 µM
[31] = RPMI 5 mM glucose + 10% dialyzed FBS, 5.12 µM
[32] = RPMI 5 mM glucose + 10% dialyzed FBS, 15.4 µM
[33] = RPMI 5 mM glucose + 10% dialyzed FBS, 46.1 µM

Structure (SMILES)	cell viability [1] [%]	cell viability [2] [%]	cell viability [3] [%]	cell viability [4] [%]	cell viability [5] [%]	cell viability [6] [%]	cell viability [7] [%]	cell viability [8] [%]	cell viability [9] [%]	cell viability [10] [%]	cell viability [11] [%]	cell viability [12] [%]	cell viability [13] [%]	cell viability [14] [%]	cell viability [15] [%]	cell viability [16] [%]	cell viability [17] [%]	cell viability [18] [%]	cell viability [19] [%]	cell viability [20] [%]	cell viability [21] [%]	cell viability [22] [%]	cell viability [23] [%]	cell viability [24] [%]	cell viability [25] [%]	cell viability [26] [%]	cell viability [27] [%]	cell viability [28] [%]	cell viability [29] [%]	cell viability [30] [%]	cell viability [31] [%]	cell viability [32] [%]	cell viability [33] [%]
COC(=O)N1CCN(Cc2cccc(NC(=O)Nc3ccc(C)nc3)c2F)CC1	96.1	95.2	105	108	99.2	105	86.7	100	100	102	73.7	122	120	120	116	119	124	124	114	116	108	96	90.3	107	109	106	94.7	112	94.6	90.1	90.7	86.4	65.3
O=C(Nc1ccc(OC(F)(F)F)cc1)c1sccc1NCc1ccnc2ccccc12	115	115	114	127	125	115	122	82.3	47.6	24.8	16.8												122	117	127	135	125	136	130	99.2	87.8	24.1	15.8
O=C1NC(=O)[C@@H](c2cn3c4c(cccc24)CCC3)[C@@H]1c1c[nH]c2ccccc12	91.6	98.3	111	99.9	93.8	75.2	96.5	39.9	25.5	22.3	28.9	117	114	113	115	124	76.2	88	27.4	20.6	16.2	22.5	90.6	98.5	103	84.1	114	83.2	102	39.1	22.7	16.4	34.4
Cc1[nH]c(/C=C2\C(=O)Nc3ccc([S+](=O)([O-])N(C)c4cccc(Cl)c4)cc32)c(C)c1C(=O)N1CCN(C)CC1	101	120	113	125	129	108	114	98.3	71.5	38.6	2.39	98.4	111	118	107	96.9	82	106	86.5	54.3	31.3	1.69											
Clc1ccc(C2(c3ccc(-c4cn[nH]c4)cc3)CCNCC2)cc1	79.1	97.2	83.5	106	88.8	96.4	73.7	87.4	77.7	40.1	39.9	95.1	99	110	108	96.1	100	98.7	102	95.9	56.7	61	88.3	91.9	90.7	92.7	80.5	90.7	71.8	89.5	80.1	57.1	46.5
COc1cc2c(Nc3ccc(NC(=O)c4ccccc4)cc3)ncnc2cc1OCCCN1CCOCC1	105	119	124	140	130	133	123	105	56.8	44.5	40.6	122	127	112	140	136	124	144	122	55	25.9	22.4											
O=C1CSC(=O)N1C(CCc1ccncc1)COc1ccc(-c2cccc([N+](=O)[O-])c2)cc1 (stereo unspecified)	119	123	109	115	118	92.4	114	95.6	111	112	79.5	123	118	132	118	112	117	117	109	98.6	82.7	48.9	105	131	105	123	135	116	128	117	106	116	75.1
COc1cc2ncnc(-n3nc(-c4ccccn4)nc3N)c2cc1OC	75.1	95.7	96.7	94.2	94.9	103	79.3	83.7	35	45	1.68	105	103	114	100	85.8	106	91.2	39.1	3.56	1.61	1.33	83.2	93.8	95.1	85.7	81.9	99.8	83.6	65.7	9.89	11.4	1.21
CCCCN(CCCC)CCC(O)c1cc2c(Cl)cc(Cl)cc2c2cc(C(F)(F)F)ccc12 (stereo unspecified)	92.5	93.3	84.3	104	108	122	36.2	61.7	117	91.3	109	109	105	107	115	116	141	48.4	52	111	89.7	89	92.1	116	109	110	105	118	46.2	48.3	104	83.1	105
COc1cc2c(N3CCN(C(=O)Nc4ccc(OC(C)C)cc4)CC3)ncnc2cc1OCCCN1CCCCC1	66.4	73.3	82.7	93.8	56.3	32.1	41.1	33.8	38	13.8	15.1	89.5	104	116	98.1	73	66.8	51.3	39.1	46.6	16.2	22.6	82.2	85.2	83.3	77.8	65	35.5	37.3	26.1	27.6	14.1	12.8
C[C@H]([C@H](O)CCC(C)(C)O)[C@H]1CC[C@@]2(O)C/3=C/C(=O)[C@@H]4C[C@@H](O)[C@@H](O)C[C@]4(C)[C@H]3CC[C@]12C	111	119	102	122	103	109	110	112	108	101	106	132	104	113	125	115	113	119	123	125	110	98											
CCC1=C[C@@H]2CN(C1)Cc1c([nH]c3ccccc13)[C@@](C(=O)OC)(c1cc3c(cc1OC)N(C)[C@H]1[C@@](O)(C(=O)OC)[C@H](OC(C)=O)[C@]4(CC)C=CCN5CC[C@]31[C@@H]54)C2	119	117	110	92.7	75.9	32	25.5	24.1	23.6	26.7	17.3												108	106	99.7	86.5	62.9	30	23.9	22	24.9	26.3	12.4
